How the values were obtained:
[1] = biological target: T1, Human αvβ3 (Homo sapiens, UniProt P05106+P06756); assay: In vitro solid phase purified αvβ3 binding assay (vitronectin/αvβ3); settings: vitronectin binding to immobilized αvβ3; read-out: αvβ3 IC50
T1 construct: purchased Chemicon International Inc., Temecula, Calif
Method: In Vitro Solid Phase Purified αvβ3 Binding Assay
The vitronectin/αvβ3 binding assay methods were derived from Mehta et al. (Biochem J. 1998, 330, 861). Human αvβ3 (Chemicon International Inc., Temecula, Calif.), at a concentration of 1 μg/ml dissolved in Tris buffer (20 mM Tris, 1 mM CaCl2, […], 10 μM MnCl2, 150 mM NaCl), was immobilized on Immulon 96 well plates (Dynex Technologies, Chantilly, Va.) overnight at 4° C. Plates were washed and treated with blocking buffer (3% BSA in Tris buffer) for 2 h at 37° C. Plates were then rinsed 2 times with Tris buffer containing 0.3% BSA and 0.2% Tween20 (polyoxyethylenesorbitan monolaurate). Five minutes prior to the addition of 5 nM vitronectin (Sigma, St. Louis, Mo.), synthesized compounds were added to wells in duplicate. Each plate included c-RGDfV as an internal control. Following a 3 hour incubation at 37° C., plates were washed 5 times in assay buffer. An anti-human vitronectin IgG rabbit polyclonal antibody (Calbiochem, San Diego, Calif.) was added (1:2000) and plates were incubated for 1 hour at room temperature. VectaStain ABC peroxidase kit reagents (Vector Laboratories, Burlingame, Calif.) employing a biotin labeled anti-rabbit IgG, were utilized for detection of bound antibody. Plates were read at 490 nm on a Molecular Devices (Sunnyvale, Calif.) microplate reader.

[2] = biological target: RGD-affinity purified GPIIb/IIIa (Homo sapiens, UniProt P05106+P08514); assay: In vitro solid phase purified GPIIb/IIIa binding assay (biotinylated fibrinogen); settings: fibrinogen binding to immobilized GPIIb/IIIa; read-out: IIb/IIIa IC50
Method: In Vitro Solid Phase Purified GP IIB/IIIA Binding Assay
The plate was covered and incubated overnight at 4° C. The GPIIb/IIIa solution was discarded and 150 μl of 5% BSA was added and incubated at RT for 1-3 h. The plate was washed extensively with modified Tyrodes buffer. Biotinylated fibrinogen (25 μl/well) at 2× final concentration was added to the wells that contain the test compounds (25 μl/well). The plate was covered and incubated at RT for 2-4 h. Twenty minutes prior to incubation completion, one drop of Reagent A (VectaStain ABC Horse Radish Peroxidase kit, Vector Laboratories, Inc.) and one drop Reagent B were added with mixing to 5 mL modified Tyrodes buffer mix and let stand. The ligand solution was discarded and the plate washed (5×200 μl/well) with modified Tyrodes buffer. Vecta Stain HRP-Biotin-Avidin reagent (50 μl/well, as prepared above) was added and incubated at RT for 15 min. The Vecta Stain solution was discarded and the wells washed (5×200 μl/well) with modified Tyrodes buffer. Developing buffer (10 mL of 50 mM citrate/phosphate buffer @ pH 5.3, 6 mg o-phenylenediamine, 6 μl 30% H2O2; 50 μl/well) was added and incubated at RT for 3-5 min, and then 2 NH2SO4 (50 μl/well) was added. The absorbance was read at 490 nm.

T1 sequence (P06756 31-889 limits assumed): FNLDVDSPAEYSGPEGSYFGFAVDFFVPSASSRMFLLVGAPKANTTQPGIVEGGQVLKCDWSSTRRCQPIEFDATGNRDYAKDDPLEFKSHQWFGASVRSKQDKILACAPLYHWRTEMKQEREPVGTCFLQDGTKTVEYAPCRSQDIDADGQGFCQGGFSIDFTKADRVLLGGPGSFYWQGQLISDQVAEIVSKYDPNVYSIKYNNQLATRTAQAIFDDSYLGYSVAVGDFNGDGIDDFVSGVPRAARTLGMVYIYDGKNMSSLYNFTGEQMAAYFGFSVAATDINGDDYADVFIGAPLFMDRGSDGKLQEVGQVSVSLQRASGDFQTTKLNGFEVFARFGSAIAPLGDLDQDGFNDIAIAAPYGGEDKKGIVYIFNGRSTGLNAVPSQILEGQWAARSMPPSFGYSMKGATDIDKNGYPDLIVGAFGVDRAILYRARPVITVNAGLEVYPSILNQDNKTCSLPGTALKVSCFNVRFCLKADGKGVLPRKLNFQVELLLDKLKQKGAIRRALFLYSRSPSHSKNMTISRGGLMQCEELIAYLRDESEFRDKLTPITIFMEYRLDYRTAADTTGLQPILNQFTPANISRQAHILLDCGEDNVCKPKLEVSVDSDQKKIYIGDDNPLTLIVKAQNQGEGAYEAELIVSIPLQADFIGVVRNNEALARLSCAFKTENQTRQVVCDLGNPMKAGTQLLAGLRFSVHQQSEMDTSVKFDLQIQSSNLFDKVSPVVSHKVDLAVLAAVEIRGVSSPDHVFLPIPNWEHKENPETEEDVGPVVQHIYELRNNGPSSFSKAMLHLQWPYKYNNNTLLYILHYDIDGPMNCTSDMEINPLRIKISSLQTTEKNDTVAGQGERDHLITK
T1 sequence (P06756 891-1048 partner limits assumed): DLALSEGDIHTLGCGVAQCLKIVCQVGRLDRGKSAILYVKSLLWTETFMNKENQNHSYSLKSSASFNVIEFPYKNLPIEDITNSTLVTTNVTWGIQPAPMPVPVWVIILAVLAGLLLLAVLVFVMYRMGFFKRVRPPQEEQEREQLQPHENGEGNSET
T1 sequence (P05106 27-788): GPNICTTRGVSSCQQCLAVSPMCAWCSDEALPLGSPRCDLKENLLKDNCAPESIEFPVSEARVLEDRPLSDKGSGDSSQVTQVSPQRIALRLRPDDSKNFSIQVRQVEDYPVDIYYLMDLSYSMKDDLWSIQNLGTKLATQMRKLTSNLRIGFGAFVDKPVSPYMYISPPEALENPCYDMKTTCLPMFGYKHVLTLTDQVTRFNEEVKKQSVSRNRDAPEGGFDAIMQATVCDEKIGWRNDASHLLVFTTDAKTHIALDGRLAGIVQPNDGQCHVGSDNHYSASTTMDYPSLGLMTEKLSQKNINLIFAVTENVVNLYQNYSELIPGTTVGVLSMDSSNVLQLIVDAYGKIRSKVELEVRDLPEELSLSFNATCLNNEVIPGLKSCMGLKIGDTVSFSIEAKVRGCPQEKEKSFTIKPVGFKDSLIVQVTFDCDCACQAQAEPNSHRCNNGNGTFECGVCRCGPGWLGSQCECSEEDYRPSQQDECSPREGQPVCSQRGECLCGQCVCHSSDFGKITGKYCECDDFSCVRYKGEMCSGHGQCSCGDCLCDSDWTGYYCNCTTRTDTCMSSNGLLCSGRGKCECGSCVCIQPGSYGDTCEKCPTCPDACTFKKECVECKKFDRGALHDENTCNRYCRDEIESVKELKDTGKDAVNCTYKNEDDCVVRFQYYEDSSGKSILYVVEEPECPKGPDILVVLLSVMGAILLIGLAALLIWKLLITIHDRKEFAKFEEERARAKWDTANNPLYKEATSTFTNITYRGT
Chain of RGD-affinity purified GPIIb/IIIa (P08514 32-887 limits assumed): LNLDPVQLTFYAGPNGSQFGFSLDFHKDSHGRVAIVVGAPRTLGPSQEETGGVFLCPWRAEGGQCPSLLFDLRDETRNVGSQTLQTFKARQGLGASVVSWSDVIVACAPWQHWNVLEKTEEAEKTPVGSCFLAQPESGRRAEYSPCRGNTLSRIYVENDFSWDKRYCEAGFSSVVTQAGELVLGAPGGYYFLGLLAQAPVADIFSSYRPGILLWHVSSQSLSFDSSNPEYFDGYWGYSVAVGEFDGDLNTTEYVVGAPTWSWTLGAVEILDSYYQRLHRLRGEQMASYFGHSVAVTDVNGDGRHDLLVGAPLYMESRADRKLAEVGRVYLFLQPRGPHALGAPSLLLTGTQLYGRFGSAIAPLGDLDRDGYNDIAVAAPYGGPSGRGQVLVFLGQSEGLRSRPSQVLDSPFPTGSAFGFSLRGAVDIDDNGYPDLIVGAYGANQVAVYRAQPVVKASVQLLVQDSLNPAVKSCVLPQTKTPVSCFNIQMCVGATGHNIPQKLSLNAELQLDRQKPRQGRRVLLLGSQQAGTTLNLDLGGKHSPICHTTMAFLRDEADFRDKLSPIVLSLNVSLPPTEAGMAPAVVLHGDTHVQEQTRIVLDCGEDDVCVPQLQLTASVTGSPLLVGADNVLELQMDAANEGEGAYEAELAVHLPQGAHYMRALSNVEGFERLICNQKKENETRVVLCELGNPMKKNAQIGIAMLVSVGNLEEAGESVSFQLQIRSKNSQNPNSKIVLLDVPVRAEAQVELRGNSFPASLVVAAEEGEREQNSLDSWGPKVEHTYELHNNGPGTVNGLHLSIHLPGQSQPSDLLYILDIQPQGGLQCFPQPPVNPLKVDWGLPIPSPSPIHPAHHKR
Chain of RGD-affinity purified GPIIb/IIIa (P08514 891-1039 partner limits assumed): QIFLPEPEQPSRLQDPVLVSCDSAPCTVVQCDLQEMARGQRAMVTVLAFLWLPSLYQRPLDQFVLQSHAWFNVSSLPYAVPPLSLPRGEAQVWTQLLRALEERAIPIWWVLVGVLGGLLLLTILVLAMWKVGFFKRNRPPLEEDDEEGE
Chain of RGD-affinity purified GPIIb/IIIa (P05106 27-788): as the sequence (P05106 27-788) above

| IC50 [1] [nM] | IC50 [2] [nM] | SMILES |
| --- | --- | --- |
| 510 | 1100 | CC(CCNC1=NCCN1)C(=O)N1CCC(C(=O)N[C@@H](CC(=O)O)Cc2ccccc2)CC1 (stereo partly drawn) [Compound 48] |
| 570 | 1.5 | O=C(N[C@@H](CNC(=O)C1CCN(C(=O)c2ccc(CNC3=NCCN3)cc2)CC1)C(=O)O)OCc1ccccc1 [Compound 53, 3-[[[1-[4-[[(4,5-dihydro-1H-imidazol-2-yl)amino]methyl]benzoyl]-4-piperidinyl]carbonyl]amino]-N-[(phenylmethoxy)carbonyl]-L-alanine] |
| 8.2 | 1500 | O=C(N[C@@H](CNC(=O)C1CCN(C(=O)OCCNC2=NCCN2)CC1)C(=O)O)OCc1ccccc1 [Compound 28, 4-[[[(2S)-2-carboxy-2-[[(phenylmethoxy)carbonyl]amino]ethyl]amino]carbonyl]-, 2-[(4,5-dihydro-1H-imidazol-2-yl)amino]ethyl ester 1-piperidinecarboxylic acid] |
| > 500 | 380 | O=C(O)CC(NC(=O)C1CCN(C(=O)CCCNc2ccccn2)CC1)c1ccc2c(c1)OCO2 (stereo not drawn) [Compound 62, β-[[[1-[1-oxo-4-(2-pyridinylamino)butyl]-4-piperidinyl]carbonyl]amino]-1,3-benzodioxole-5-propanoic acid] |
| > 500 | 7300 | O=C(O)CC(NC(=O)C1CCN(C(=O)CCCNC2=NCCN2)CC1)c1ccc2c(c1)CCO2 (stereo not drawn) [Compound 23] |
| > 300 | 12000 | O=C(O)CC(NC(=O)C1CCN(C(=O)CCCNC2=NCCN2)CC1)c1cccc2ccccc12 (stereo not drawn) [Compound 36] |
| > 300 | 3300 | O=C(O)CC(NC(=O)C1CCN(C(=O)CCCNC2=NCCN2)CC1)c1cc(F)cc(F)c1 (stereo not drawn) [Compound 38] |
| 15 | 23 | CC(CNC1=NCCN1)C(=O)N1CCC(C(=O)N[C@@H](CC(=O)O)c2cnc3ccccc3c2)CC1 (stereo partly drawn) [Compound 5, β-[[[1-[3-[(4,5-dihydro-1H-imidazol-2-yl)amino]-2-methyl-1-oxopropyl]-4-piperidinyl]carbonyl]amino]-, (β^3S)-3-quinolinepropanoic acid] |
| 12 | 1100 | O=C(O)C[C@H](NC(=O)C1CCN(C(=O)OCCNC2=NCCN2)CC1)c1cccnc1 [Compound 40] |
| 10000 | 29000 | O=C(O)CC(NC(=O)C1CCN(C(=O)CCc2nc3ccccc3[nH]2)CC1)c1ccc2c(c1)OCCO2 (stereo not drawn) [Compound 13] |
| 28 | 130 | O=C(O)C[C@H](NC(=O)C1CCN(C(=O)CCCNC2=NCCN2)CC1)c1ccc(Cl)nc1 [Compound 3, 6-chloro-β-[[[1-[4-[(4,5-dihydro-1H-imidazol-2-yl)amino]-1-oxobutyl]-4-piperidinyl]carbonyl]amino]-, (β^3S)-3-pyridinepropanoic acid] |
| 150 | 1700 | C[C@H](CC(=O)O)NC(=O)C1CCN(C(=O)CCCNC2=NCCN2)CC1 [Compound 4, 3-[[[1-[4-[(4,5-dihydro-1H-imidazol-2-yl)amino]-1-oxobutyl]-4-piperidinyl]carbonyl]amino]-, (3R)-butanoic acid] |
| 34 | 210 | O=C(O)CC(NC(=O)C1CCN(C(=O)OCCNC2=NCCN2)CC1)c1ccc2c(c1)OCO2 (stereo not drawn) [Compound 29] |
| 32 | 2900 | O=C(O)CC(NC(=O)C1CCN(C(=O)CCCNC2=NCCN2)CC1)c1cccnc1 (stereo not drawn) [Compound 25] |
| 2.3 | 36 | O=C(O)C[C@H](NC(=O)C1CCN(C(=O)OCCNC2=NCCN2)CC1)c1cnc2ccccc2c1 [Compound 39, β-[[[1-[[2-[(4,5-dihydro-1H-imidazol-2-yl)amino]ethoxy]carbonyl]-4-piperidinyl]carbonyl]amino]-, (β^3S)-3-quinolinepropanoic acid] |
| 12 | 26 | O=C(N[C@@H](CNC(=O)C1CCN(C(=O)/C=C/CNC2=NCCN2)CC1)C(=O)O)OCc1ccccc1 [Compound 55] |
| 320 | 71 | O=C(O)C[C@H](NC(=O)C1CCN(C(=O)CC2(CNC3=NCCN3)CCCCC2)CC1)c1ccc(Cl)nc1 [Compound 19] |
| 490 | 7900 | O=C(O)CC(NC(=O)C1CCN(C(=O)CCc2nc3ccccc3[nH]2)CC1)c1cnc2ccccc2c1 (stereo not drawn) [Compound 7] |
| 160 | 510 | O=C(NCCCC(=O)N1CCC(C(=O)NC[C@H](NC(=O)OCc2ccccc2)C(=O)O)CC1)NCc1ccccc1 [Compound 59] |

The remaining lines, values behind:

| SMILES | IC50 [1] [nM] | IC50 [2] [nM] |
| --- | --- | --- |
| O=C(N[C@@H](CNC(=O)C1CCN(C(=O)C2CCN(C3=NCCN3)CC2)CC1)C(=O)O)OCc1ccccc1 [Compound 11, 3-[[[1-[[1-(4,5-dihydro-1H-imidazol-2-yl)-4-piperidinyl]carbonyl]-4-piperidinyl]carbonyl]amino]-N-[(phenylmethoxy)carbonyl]-L-alanine] | 1300 | 2.6 |
| O=C(O)C[C@H](NC(=O)C1CCN(C(=O)CCCNC2=NCCN2)CC1)c1cccnc1 [Compound 33] | 19 | 1800 |
| O=C(N[C@@H](CNC(=O)C1CCN(C(=O)NCCCn2ccnc2)CC1)C(=O)O)OCc1ccccc1 [Compound 10] | > 50000 | 950 |
| O=C(O)CC(NC(=O)C1CCN(C(=O)CCONC2=NCCN2)CC1)c1ccc2c(c1)OCO2 (stereo not drawn) [Compound 61, β-[[[1-[3-[[(4,5-dihydro-1H-imidazol-2-yl)amino]oxy]-1-oxopropyl]-4-piperidinyl]carbonyl]amino]-1,3-benzodioxole-5-propanoic acid] | 180 | 2700 |
| Cc1cccc(C(CC(=O)O)NC(=O)C2CCN(C(=O)CCCNC3=NCCN3)CC2)c1 (stereo not drawn) [Compound 22] | > 500 | 38000 |
| O=C(N[C@@H](CNC(=O)C1CCN(C(=O)[C@@H]2C=C[C@H](NC3=NCCN3)C2)CC1)C(=O)O)OCc1ccccc1 [Compound 14, 3-[[[1-[[(1S,4R)-4-[(4,5-dihydro-1H-imidazol-2-yl)amino]-2-cyclopenten-1-yl]carbonyl]-4-piperidinyl]carbonyl]amino]-N-[(phenylmethoxy)carbonyl]-L-alanine] | 50 | 9.2 |
| CC(CNC1=NCCN1)CC(=O)N1CCC(C(=O)NC[C@H](NC(=O)OCc2ccccc2)C(=O)O)CC1 (stereo partly drawn) [Compound 54] | 72 | 13 |
| O=C(N[C@@H](CNC(=O)C1CCN(C(=O)CC(CNC2=NCCN2)c2ccc(Cl)cc2)CC1)C(=O)O)OCc1ccccc1 (stereo partly drawn) [Compound 18] | 50 | 15 |
| O=C(O)CC(NC(=O)C1CCN(C(=O)CCCNC2=NCCN2)CC1)c1ccc(F)c(F)c1 (stereo not drawn) [Compound 43] | 230 | 1300 |
| COC(=O)[C@H](CNC(=O)C1CCN(C(=O)CCCNC2=NCCN2)CC1)NC(=O)OCc1ccccc1 [Compound 42] | 170 | 140 |
| O=C(O)CC(NC(=O)C1CCN(C(=O)CCCNC2=NCCN2)CC1)c1cc(Cl)cc(Cl)c1 (stereo not drawn) [Compound 26] | 120 | 1800 |
| O=C(O)C[C@H](NC(=O)C1CCN(C(=O)CCCNc2ccccn2)CC1)c1cccnc1 [Compound 30] | 140 | 56000 |
| O=C(O)CC(NC(=O)C1CCN(C(=O)CCCNC2=NCCN2)CC1)c1ccc2c(c1)OCO2 (stereo not drawn) [Compound 21] | 23 | 410 |
| O=C(N[C@@H](CNC(=O)C1CCN(C(=O)[C@H]2C=C[C@@H](NC3=NCCN3)C2)CC1)C(=O)O)OCc1ccccc1 [Compound 17, 3-[[[1-[[(1R,4S)-4-[(4,5-dihydro-1H-imidazol-2-yl)amino]-2-cyclopenten-1-yl]carbonyl]-4-piperidinyl]carbonyl]amino]-N-[(phenylmethoxy)carbonyl]-L-alanine] | 380 | 5.4 |
| NCCCC(=O)N1CCC(C(=O)NC[C@H](NC(=O)OCc2ccccc2)C(=O)O)CC1 [Compound 56] | > 5000 | 49 |
| O=C(O)CC(NC(=O)C1CCN(C(=O)CCCNC2=NCCN2)CC1)c1ccsc1 (stereo not drawn) [Compound 20] | 530 | 4900 |
| Cc1cccnc1NCCCC(=O)N1CCC(C(=O)NC[C@H](NC(=O)OCc2ccccc2)C(=O)O)CC1 [Compound 41] | > 300 | 110 |
